Source: patent publication US20110236409A1, “O[…] FROM VARIABLE ANTIGENS, T CELL POPULATIONS AND USES THEREOF” (Helmholtz Zentrum München - Deutsches Forschungszentrum für …, priority 2008, published 2011)

Key:
Assay type in all cases: cell-based, human
[1] = tested on: Peripheral blood mononuclear cells (PBMC) of HIV-1 infected individuals; experiment: Ex vivo ELISPOT assay for single-cell IFN-γ release, HIV-infected individuals; conditions: patient HSR-028
Experimental: Peripheral blood mononuclear cells (PBMC) were seeded in duplicate at 2×10^5 cells/well in 96-well plates (MAIPS4510; Millipore, Bedford, Mass.) precoated with anti-IFN-γ capture monoclonal antibody (B-B1; Diaclone, Besancon, France) and stimulated with the different peptide pools at the fixed concentration of 3 μg/ml of each peptide for 18 h at 37° C. in air plus 5% CO2. Biotinylated anti-IFN-γ detection monoclonal antibody (B-G1; Diaclone) was added for 2 h, followed by the addition of streptavidin-alkaline phosphatase conjugate (Amersham Pharmacia Biotech Europe GmbH, Freiburg, Germany) for 1 h. A chromogenic substrate (nitroblue tetrazolium-BCIP [5-bromo-4-chloro-3-indolylphosphate]; Sigma, St. Louis, Mo.) was added for 10 min. The individual spots were counted by using an Automated ELISA-Spot Assay Video Analysis System, Eli-Scan with the software Eli.Analyse V4.2 (A.EL.VIS, Hannover, Germany).
The responses were empirically scored as positive if the test wells contained a mean number of spot-forming cells (SFC) higher than the mean value plus two standard deviations in negative control wells, and if the number of SFC per million PBMC in stimulated wells (subtracted of the values of negative control wells) was ≧50. PBMC in medium alone were used to establish the negative control background, that had to be not higher than 50 SFC per million of cells (10 SFC/well). […]

[2] = tested on: Nef specific CD4 and CD8 T-cells (PBMC); experiment: Intracellular cytokine staining (IFN-γ) of CD4 and CD8 T cells, Nef peptides; conditions: subject V4; B8 restricted
Experimental: (§1) After thawing, PBMC were washed trice at room temperature in complete cell culture medium and plated in round bottom 96 wells/plates. All the incubations were carried out in round bottom 96 wells/plates to allow high throughput processing of the probes. 10^6 PBMC/well were incubated with 1.3 μg/ml of antibody to CD28 and with 1.3 μg/ml of antibody to CD49d (Becton Dickinson, Heidelberg, Germany) together with defined peptide pools. For each individual, a sample without peptides was included to calculate the background staining. Following one-hour incubation, 10 μg/ml of Brefeldin A were added to the cell suspension and the incubation carried out for additional 4 hours. Stimulated cells were then resuspended in Stain Buffer (0.2% BSA, 0.09% Na Azide in DPBS; Becton Dickinson) and incubated with the photoreactive fluorescent label ethidium monoazide (EMA; Molecular Probes, Leiden, The Netherlands) used as viability dye. After washing, cells were fixed and permeabilized using the BD Cytofix/Cytoperm™ Kit, (Becton Dickinson). […]
(§2) Following background subtraction, the threshold level was calculated using the 90 percentile of the negative values. […]
In this way, the authors could establish whether the higher number of individual responses measured with the new set of overlapping peptides was restricted to the CD8 compartment or interested also CD4 T-cell recognition.

[3] = tested on: CD45RA+ IFN-γ− IL-2− MIP-1β+ CD8 T-cells; experiment: Polychromatic intracellular cytokine staining, detection of CD45RA+ IFN-γ− IL-2− MIP-1β+ CD8 T-cells; conditions: subject V4
Experimental: as §1, with “Dickinson). Then, the following fluorochrome-conjugated antibodies were added to the cell suspension: CD3-AmCyan, CD4-PerCP, CD45RA-PECy7, CD154-FITC, IFNγ-A1700, IL2-APC and MIP1β-PE from Becton Dickinson and CD8-PacB from DAKO (Hamburg, Germany).” for “Dickinson).”
as §2

[4] = tested on: T-cell response of HIV-1 infected individuals; experiment: Mapping of Tat- and Nef-specific T-cell responses to single VOPSD peptides in cohorts of HIV-1 infected individuals (Elite Controllers)
[5] = Controllers Upon Suspension (CUS)

EPVDPRLEPWKHPGSQPKTA [20mer homolog, 20mer homolog of VOPSD Tat peptide 1 from the standard Tat 20mer set, reference compound]
peptide concentration of maximal recognition (single peptide titration) [1]: recognized only at the highest concentration tested

FLKEKGGL
CD8 T-cell response to the epitope [2]: strong CD8 T-cell response | detection of CD45RA+ IFN-γ− IL-2− MIP-1β+ CD8 T-cells [3]: detected

KKCCFHCQVCFITKALGI [peptide 2.5]
individuals recognizing the peptide ([4]; CHI w T): 1/15 | individuals recognizing the peptide [4, 5]: 1/5 | individuals recognizing the peptide ([4]; Elite Controllers (EC)): 4/13 | individuals recognizing the peptide ([4]; LTNP): 1/6

LEPWKHPGSQPKTACTNCY [peptide 2.2]
individuals recognizing the peptide ([4]; Elite Controllers (EC)): 5/9

MEPVDPRLEPW [VOPSD Tat peptide 1]
peptide concentration of maximal recognition (single peptide titration) [1]: 0.5 µM

QVCFITKALGISYGR [peptide 2.6]
individuals recognizing the peptide ([4]; CHI w T): 1/15 | individuals recognizing the peptide ([4]; CHI w/o T): 1/13 | individuals recognizing the peptide [4, 5]: 1/5 | individuals recognizing the peptide ([4]; Elite Controllers (EC)): 7/13

VLEWRFDSRLAFHHVAREL [peptide 5.29]
individuals recognizing the peptide ([4]; Elite Controllers (EC)): 7/13 | immunodominant response in groups other than EC ([4]; all other groups of HIV-1 infected individuals): not for any of the all the other groups of HIV-1 infected individuals
